Test results published in patent US12612395B2, “Rocaglate derivatives and uses thereof” (TRUSTEES OF BOSTON UNIVERSITY, priority 2023, dated 2026).

Legend:
GBM0308 cells (CSCs) = experiment: Annexin V/PI flow cytometry apoptosis assay; format: cell-based, human; conditions: 1 μM, 12 h and 24 h
Protocol: (§1) To gain additional mechanistic insights into GBM cell death induced by (−)-20, the inventors conducted several functional assays. The inventors first derived a single neurosphere from GBM0308 cells cultured in stem cell conditions, which was treated with either DMSO or (−)-20 at varying doses for three days followed by staining with PI and Hoechst dyes and subsequent imaging. […] To capture the kinetics of apoptotic events, the inventors employed caspase 3/7 staining of GBM0308 neurospheres treated with either DMSO or (−)-20 and subsequently evaluated at three timepoints over a 48-hour period. […] (FIG. 5B).
(§2) Apoptosis Assays: For the Caspase 3/7 assay single neurospheres were generated as described above. On day four, neurospheres were treated with compound (−)-20. Apoptosis in treated tumorspheres was assessed using Nexcelom's ViaStain™ Live Caspase 3/7 Detection kit (Nexcelcom, CS1-V0002-1). […] Plates were imaged using the “neurosphere 1+Mask” application to measure fluorescent intensities of the caspase dye, as described previously.^70 Apoptosis was quantified using the FITC Annexin V apoptosis detection kit II (Invitrogen). […] At 12 h and 24 h after treatment, neurospheres were gently dissociated by using trypsin 0.025%, stained with PI and FITC and analyzed by flow cytometery using a Bio-Rad ZE5 Cell Analyzer.

BT112 CSCs = experiment: Dose-response killing of CSCs in BT112 glioblastoma cell line; format: cell-based; conditions: Homo sapiens, read-out: CSC EC50
Protocol: (§3) Cell Culture: Glioblastoma stem cell lines GBM0308, BT145, and BT112 were cultured in neurobasal (NBE medium) containing N-2 and B-27 supplements, EGF, bFGF, L-glutamine, and Penicillin-Streptomycin), as described previously.^19 Adherent GBM cells were cultured in serum-containing DMEM media (Invitrogen) supplemented with 10% fetal bovine serum (Corning Cellgro™). Cells were incubated at 37° C. and 5% CO2 to allow neurosphere formation. For seeding and subculturing, the neurospheres were gently trypsinized with 0.025% trypsin to form a single-cell suspension.
(§4) Dose-Response Testing in GBM Cells: Briefly, on day 1, cells were seeded in triplicate. For CSCs, 1500 cells/well were plated in a low attachment 96-well plate with NBE media and incubated for 3 days at 37° C. and 5% CO2 to allow the formation of neurospheres. For non-CSCs, 3000 cells/well were plated in a 96-well plate with DMEM media supplemented with 10% FBS. Similarly, the assay plates were also incubated for the same duration. Compound treatments started on day 4. […] After incubation, plates were read by Celigo imaging cytometer using an inbuilt Celigo application; Cell Viability (Dead+Total). For the viability measurement, the total number of neurospheres/cells and dead neurospheres/cells in each well were counted by the cytometer. […]

GBM0308 stem cells = experiment: RNA sequencing of treated GBM CSCs; format: cell-based, human; conditions: 0.1 μM and 1 μM, 12 h and 24 h
Excerpt: To understand the transcriptomic changes underlying (−)-20 effects on GBM CSCs, the inventors performed RNA sequencing experiments in these cells. […] Furthermore, upon compound treatment, the inventors observed the downregulation of several hallmark gene sets associated with critical cellular processes, including apoptosis, glycolysis, MTORC1 signaling, NOTCH signaling, epithelial-mesenchymal transition (EMT), and angiogenesis (FIGS. 5D and 18A). […] This observation emphasizes the complexity of cell death mechanisms and the potential origins of selectivity of (−)-20 against CSCs. […] (FIG. 5E).
RNA Sequencing and Analysis: GBM0308 cells cultured in NBE medium were treated with compound (−)-20 at concentrations of 0.1 μM, 1 μM and DMSO. At 12 h and 24 h timepoints, total RNA was extracted using RNeasy mini kit (Qiagen) as per the manufacturer's instruction. Preparation of the RNA library and transcriptome sequencing were conducted by Novogene. […]

BT145 CSCs = experiment: Dose-response killing of CSCs in BT145 glioblastoma cell line; format: cell-based; conditions: Homo sapiens, read-out: CSC EC50
Protocol: as §3, §4

GBM0308 neurospheres = experiment: Caspase 3/7 staining of neurospheres; format: cell-based, human; conditions: 1 μM, 24- and 48-hour timepoints
Protocol: as §1, §2

COc1cc(OC)c2c(c1)O[C@@]1(c3ccc(Br)cc3)[C@H](c3ccccc3)[C@@H](C(=O)NS(=O)(=O)N(C)C)[C@@H](O)[C@@]21O [(−)-20, (1R,2R,3S,3aR,8bS)-3a-(4-bromophenyl)-N—(N,N-dimethylsulfamoyl)-1,8b-dihydroxy-6,8-dimethoxy-3-phenyl-2,3,3a,8b-tetrahydro-1H-cyclopenta[b]benzofuran-2-carboxamide]
Annexin V/PI staining (apoptosis) (GBM0308 cells (CSCs)): induced apoptosis | EC50 (BT112 CSCs): 34 nM | expression of genes involved in stem cell maintenance and survival (NOTCH1, NOTCH2, NOTCH3, SALL3, SOX2) (GBM0308 stem cells): downregulated | EC50 (BT145 CSCs): 93 nM | caspase 3/7 staining (GBM0308 neurospheres): positive staining
